Tested on: OVCAR-5 complex spheroids with HUVEC/MSC, viability, % test/control
Experiment: Anticancer human tumor OVCAR-5 cell line growth inhibition [AhR];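 note: spheroids exposed to compounds for 7 days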;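 for viability, T/C: 100% = DMSO vehicle control wells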
Details: for IC50: curve of first compound; for viability, T/C: stronger effect = lower value
Method in brief: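 Spheroids combined tumor cells with HUVEC endothelial cells and human MSCs as stroma. AhR antagonists were paired with standard or investigational drugs, each dosed in half-log steps down from near clinical Cmax, or from 10 microM where Cmax was unknown.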

[1] = second compound 0.1 µM, first compound 0.0316 µM
[2] = second compound 0.1 µM, first compound 0.1 µM
[3] = second compound 0.1 µM, first compound 0.316 µM
[4] = second compound 0.1 µM, first compound 1 µM
[5] = second compound 0.1 µM, first compound 3.16 µM
[6] = second compound 0.1 µM, first compound 10 µM
[7] = second compound 0.316 µM, first compound 0.0316 µM
[8] = second compound 0.316 µM, first compound 0.1 µM
[9] = second compound 0.316 µM, first compound 0.316 µM
[10] = second compound 0.316 µM, first compound 1 µM
[11] = second compound 0.316 µM, first compound 3.16 µM
[12] = second compound 0.316 µM, first compound 10 µM
[13] = second compound 1 µM, first compound 0.0316 µM
[14] = second compound 1 µM, first compound 0.1 µM
[15] = second compound 1 µM, first compound 0.316 µM
[16] = second compound 1 µM, first compound 1 µM
[17] = second compound 1 µM, first compound 3.16 µM
[18] = second compound 1 µM, first compound 10 µM
[19] = second compound 3.16 µM, first compound 0.0316 µM
[20] = second compound 3.16 µM, first compound 0.1 µM
[21] = second compound 3.16 µM, first compound 0.316 µM
[22] = second compound 3.16 µM, first compound 1 µM
[23] = second compound 3.16 µM, first compound 3.16 µM
[24] = second compound 3.16 µM, first compound 10 µM
[25] = second compound 10 µM, first compound 0.0316 µM
[26] = second compound 10 µM, first compound 0.1 µM
[27] = second compound 10 µM, first compound 0.316 µM
[28] = second compound 10 µM, first compound 1 µM
[29] = second compound 10 µM, first compound 3.16 µM
[30] = second compound 10 µM, first compound 10 µM

## CC1(C)CCC(CN2CCN(c3ccc(C(=O)NS(=O)(=O)c4ccc(NCC5CCOCC5)c([N+](=O)[O-])c4)c(Oc4cnc5[nH]ccc5c4)c3)CC2)=C(c2ccc(Cl)cc2)C1 + CC(CO)NC(=O)c1cc(-c2ccc(Cl)cc2)nn(-c2cnn(C)c2)c1=O
Second compound 0.1 µM
  IC50: > 10 µM
Second compound 0.316 µM
  IC50: > 10 µM
Second compound 1 µM
  IC50: > 10 µM
Second compound 3.16 µM
  IC50: > 10 µM
Second compound 10 µM
  IC50: > 10 µM
[1]
  viability, T/C: 107%
[2]
  viability, T/C: 107%
[3]
  viability, T/C: 109%
[4]
  viability, T/C: 113%
[5]
  viability, T/C: 118%
[6]
  viability, T/C: 51.4%
[7]
  viability, T/C: 111%
[8]
  viability, T/C: 107%
[9]
  viability, T/C: 113%
[10]
  viability, T/C: 114%
[11]
  viability, T/C: 118%
[12]
  viability, T/C: 50.6%
[13]
  viability, T/C: 115%
[14]
  viability, T/C: 116%
[15]
  viability, T/C: 122%
[16]
  viability, T/C: 120%
[17]
  viability, T/C: 122%
[18]
  viability, T/C: 53.8%
[19]
  viability, T/C: 102%
[20]
  viability, T/C: 106%
[21]
  viability, T/C: 104%
[22]
  viability, T/C: 111%
[23]
  viability, T/C: 114%
[24]
  viability, T/C: 53.8%
[25]
  viability, T/C: 100%
[26]
  viability, T/C: 102%
[27]
  viability, T/C: 104%
[28]
  viability, T/C: 104%
[29]
  viability, T/C: 106%
[30]
  viability, T/C: 57.6%

## CCN(c1cc(-c2ccc(CN3CCOCC3)cc2)cc(C(=O)NCc2c(C)cc(C)[nH]c2=O)c1C)C1CCOCC1 + CC(CO)NC(=O)c1cc(-c2ccc(Cl)cc2)nn(-c2cnn(C)c2)c1=O
Second compound 0.1 µM
  IC50: > 3 µM
Second compound 0.316 µM
  IC50: > 3 µM
Second compound 1 µM
  IC50: > 3 µM
Second compound 3.16 µM
  IC50: > 3 µM
Second compound 10 µM
  IC50: > 3 µM
Second compound 0.1 µM, first compound 0.00949 µM
  viability, T/C: 114%
Second compound 0.1 µM, first compound 0.03 µM
  viability, T/C: 111%
Second compound 0.1 µM, first compound 0.0949 µM
  viability, T/C: 111%
Second compound 0.1 µM, first compound 0.3 µM
  viability, T/C: 110%
Second compound 0.1 µM, first compound 0.949 µM
  viability, T/C: 106%
Second compound 0.1 µM, first compound 3 µM
  viability, T/C: 109%
Second compound 0.316 µM, first compound 0.00949 µM
  viability, T/C: 113%
Second compound 0.316 µM, first compound 0.03 µM
  viability, T/C: 117%
Second compound 0.316 µM, first compound 0.0949 µM
  viability, T/C: 114%
Second compound 0.316 µM, first compound 0.3 µM
  viability, T/C: 107%
Second compound 0.316 µM, first compound 0.949 µM
  viability, T/C: 111%
Second compound 0.316 µM, first compound 3 µM
  viability, T/C: 110%
Second compound 1 µM, first compound 0.00949 µM
  viability, T/C: 116%
Second compound 1 µM, first compound 0.03 µM
  viability, T/C: 118%
Second compound 1 µM, first compound 0.0949 µM
  viability, T/C: 119%
Second compound 1 µM, first compound 0.3 µM
  viability, T/C: 115%
Second compound 1 µM, first compound 0.949 µM
  viability, T/C: 113%
Second compound 1 µM, first compound 3 µM
  viability, T/C: 117%
Second compound 3.16 µM, first compound 0.00949 µM
  viability, T/C: 108%
Second compound 3.16 µM, first compound 0.03 µM
  viability, T/C: 113%
Second compound 3.16 µM, first compound 0.0949 µM
  viability, T/C: 107%
Second compound 3.16 µM, first compound 0.3 µM
  viability, T/C: 98.8%
Second compound 3.16 µM, first compound 0.949 µM
  viability, T/C: 91.8%
Second compound 3.16 µM, first compound 3 µM
  viability, T/C: 97.8%
Second compound 10 µM, first compound 0.00949 µM
  viability, T/C: 102%
Second compound 10 µM, first compound 0.03 µM
  viability, T/C: 106%
Second compound 10 µM, first compound 0.0949 µM
  viability, T/C: 99%
Second compound 10 µM, first compound 0.3 µM
  viability, T/C: 97.7%
Second compound 10 µM, first compound 0.949 µM
  viability, T/C: 98.1%
Second compound 10 µM, first compound 3 µM
  viability, T/C: 99.9%

## Cn1ncnc1C1c2n[nH]c(=O)c3cc(F)cc(c23)NC1c1ccc(F)cc1 (stereo not given) + CC(CO)NC(=O)c1cc(-c2ccc(Cl)cc2)nn(-c2cnn(C)c2)c1=O
Second compound 0.1 µM
  IC50: > 0.1 µM
Second compound 0.316 µM
  IC50: > 0.1 µM
Second compound 1 µM
  IC50: > 0.1 µM
Second compound 3.16 µM
  IC50: > 0.1 µM
Second compound 10 µM
  IC50: > 0.1 µM
Second compound 0.1 µM, first compound 0.000316 µM
  viability, T/C: 104%
Second compound 0.1 µM, first compound 0.001 µM
  viability, T/C: 105%
Second compound 0.1 µM, first compound 0.00316 µM
  viability, T/C: 105%
Second compound 0.1 µM, first compound 0.01 µM
  viability, T/C: 105%
[1]
  viability, T/C: 104%
[2]
  viability, T/C: 101%
Second compound 0.316 µM, first compound 0.000316 µM
  viability, T/C: 104%
Second compound 0.316 µM, first compound 0.001 µM
  viability, T/C: 110%
Second compound 0.316 µM, first compound 0.00316 µM
  viability, T/C: 106%
Second compound 0.316 µM, first compound 0.01 µM
  viability, T/C: 107%
[7]
  viability, T/C: 105%
[8]
  viability, T/C: 99.7%
Second compound 1 µM, first compound 0.000316 µM
  viability, T/C: 112%
Second compound 1 µM, first compound 0.001 µM
  viability, T/C: 114%
Second compound 1 µM, first compound 0.00316 µM
  viability, T/C: 112%
Second compound 1 µM, first compound 0.01 µM
  viability, T/C: 108%
[13]
  viability, T/C: 112%
[14]
  viability, T/C: 108%
Second compound 3.16 µM, first compound 0.000316 µM
  viability, T/C: 106%
Second compound 3.16 µM, first compound 0.001 µM
  viability, T/C: 103%
Second compound 3.16 µM, first compound 0.00316 µM
  viability, T/C: 103%
Second compound 3.16 µM, first compound 0.01 µM
  viability, T/C: 96.2%
[19]
  viability, T/C: 101%
[20]
  viability, T/C: 100%
Second compound 10 µM, first compound 0.000316 µM
  viability, T/C: 97.6%
Second compound 10 µM, first compound 0.001 µM
  viability, T/C: 97.8%
Second compound 10 µM, first compound 0.00316 µM
  viability, T/C: 99.5%
Second compound 10 µM, first compound 0.01 µM
  viability, T/C: 95.5%
[25]
  viability, T/C: 93.5%
[26]
  viability, T/C: 94.6%

## NS(=O)(=O)OCC1CC(n2ccc3c(NC4CCc5ccccc54)ncnc32)CC1O (stereo not given) + CC(CO)NC(=O)c1cc(-c2ccc(Cl)cc2)nn(-c2cnn(C)c2)c1=O
Second compound 0.1 µM
  IC50: 0.196 µM
Second compound 0.316 µM
  IC50: 0.159 µM
Second compound 1 µM
  IC50: 0.169 µM
Second compound 3.16 µM
  IC50: 0.174 µM
Second compound 10 µM
  IC50: 0.204 µM
[1]
  viability, T/C: 92.9%
[2]
  viability, T/C: 66.1%
[3]
  viability, T/C: 40.3%
[4]
  viability, T/C: 16.1%
[5]
  viability, T/C: 13%
[6]
  viability, T/C: 11.3%
[7]
  viability, T/C: 79.5%
[8]
  viability, T/C: 58.9%
[9]
  viability, T/C: 37.1%
[10]
  viability, T/C: 14.8%
[11]
  viability, T/C: 11.2%
[12]
  viability, T/C: 11.5%
[13]
  viability, T/C: 85.1%
[14]
  viability, T/C: 61%
[15]
  viability, T/C: 37.6%
[16]
  viability, T/C: 14.9%
[17]
  viability, T/C: 11.5%
[18]
  viability, T/C: 11.6%
[19]
  viability, T/C: 72.1%
[20]
  viability, T/C: 65.3%
[21]
  viability, T/C: 33.5%
[22]
  viability, T/C: 13.7%
[23]
  viability, T/C: 11.3%
[24]
  viability, T/C: 11.2%
[25]
  viability, T/C: 75.7%
[26]
  viability, T/C: 65.7%
[27]
  viability, T/C: 40.7%
[28]
  viability, T/C: 15.7%
[29]
  viability, T/C: 12.6%
[30]
  viability, T/C: 12.6%

— PubChem BioAssay AID1919015 (Molecular Pharmacology Branch, DTP, NCI, 2023)
